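Tested at 5 concentrations; 48 h exposure; 96-well plates; endpoints linearly interpolated, else capped at highest concentration. GI50 = concentration required for 50% inhibition of growth.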 The source made the active and inactive calls. No stated cut-off is given here; in the data, active = GI50 up to about 1.1 µM and inactive = higher.
How the values were obtained:
Assay in all cases: NCI tumour cell line growth inhibition, 48 h
[1] = test system: HCT-116
[2] = test system: BT-549
[3] = test system: ACHN
[4] = test system: SNB-19
[5] = test system: NCI-H522
[6] = test system: UACC-62
[7] = test system: SF-295
[8] = test system: HT-29
[9] = test system: M14
[10] = test system: Hs-578T
[11] = test system: K562
[12] = test system: TK-10
[13] = test system: A498
[14] = test system: PC-3
[15] = test system: SW-620
[16] = test system: MDA-MB-231
[17] = test system: COLO 205
[18] = test system: U-251
[19] = test system: NCI-H226
[20] = test system: IGROV-1
[21] = test system: SN12C
[22] = test system: SK-MEL-2
[23] = test system: DU-145
[24] = test system: OVCAR-4
[25] = test system: 786-0
[26] = test system: NCI-H460
[27] = test system: CAKI-1
[28] = test system: NCI/ADR-RES
[29] = test system: SK-MEL-5
[30] = test system: Malme-3M
[31] = test system: MOLT-4
[32] = test system: MDA-N
[33] = test system: SR
[34] = test system: A549
[35] = test system: SK-OV-3
[36] = test system: OVCAR-5
[37] = test system: UO-31
[38] = test system: MDA-MB-435
[39] = test system: KM12
[40] = test system: NCI-H23
[41] = test system: RPMI-8226
[42] = test system: HOP-92
[43] = test system: HL-60
[44] = test system: UACC-257
[45] = test system: SF-539
[46] = test system: SK-MEL-28
[47] = test system: HCT-15
[48] = test system: HOP-62
[49] = test system: OVCAR-8
[50] = test system: EKVX
[51] = test system: HCC 2998
[52] = test system: T47D
[53] = test system: MCF7
[54] = test system: SNB-75
[55] = test system: OVCAR-3
[56] = test system: LOX IMVI
[57] = test system: CCRF-CEM
[58] = test system: SF-268

With `COC(=O)C1CCC(=O)N1C(c1ccc2c(c1)OCO2)c1ccc2c(c1)OCO2` (configuration not stated) the GI50 [1] was > 100 µM (inactive), the GI50 [2] was > 100 µM (inactive) and the GI50 [3] was > 100 µM (inactive). The GI50 [4] was > 100 µM (inactive), the GI50 [5] was > 100 µM (inactive) and the GI50 [6] was > 100 µM (inactive). The GI50 [7] was > 100 µM (inactive), the GI50 [8] was > 100 µM (inactive) and the GI50 [9] was > 100 µM (inactive). For the same compound, the GI50 [10] was > 100 µM (inactive), the GI50 [11] was > 100 µM (inactive) and the GI50 [12] was > 100 µM (inactive). The GI50 [13] was > 100 µM (inactive), the GI50 [14] was > 100 µM (inactive) and the GI50 [15] was > 100 µM (inactive). The GI50 [16] was > 100 µM (inactive), the GI50 [17] was > 100 µM (inactive) and the GI50 [18] was > 100 µM (inactive). The GI50 [19] was > 100 µM (inactive), the GI50 [20] was > 100 µM (inactive) and the GI50 [21] was > 100 µM (inactive). The GI50 [22] was > 100 µM (inactive), the GI50 [23] was > 100 µM (inactive) and the GI50 [24] was > 100 µM (inactive). For the same compound, the GI50 [25] was > 100 µM (inactive), the GI50 [26] was > 100 µM (inactive) and the GI50 [27] was > 100 µM (inactive). The GI50 [28] was > 100 µM (inactive), the GI50 [29] was > 100 µM (inactive) and the GI50 [30] was > 100 µM (inactive). For the same compound, the GI50 [31] was > 100 µM (inactive), the GI50 [32] was > 100 µM (inactive) and the GI50 [33] was > 100 µM (inactive). The GI50 [34] was > 100 µM (inactive), the GI50 [35] was > 100 µM (inactive) and the GI50 [36] was > 100 µM (inactive). For the same compound, the GI50 [37] was 51.9 µM (inactive), the GI50 [38] was > 100 µM (inactive) and the GI50 [39] was > 100 µM (inactive). For the same compound, the GI50 [40] was > 100 µM (inactive), the GI50 [41] was > 100 µM (inactive) and the GI50 [42] was > 100 µM (inactive). For the same compound, the GI50 [43] was > 100 µM (inactive), the GI50 [44] was > 100 µM (inactive) and the GI50 [45] was > 100 µM (inactive). For the same compound, the GI50 [46] was > 100 µM (inactive), the GI50 [47] was over 100 µM and the GI50 [48] was > 100 µM (inactive). The GI50 [49] was > 100 µM (inactive), the GI50 [50] was > 100 µM (inactive) and the GI50 [51] was > 100 µM (inactive). The GI50 [52] was > 100 µM (inactive), the GI50 [53] was > 100 µM (inactive) and the GI50 [54] was > 100 µM (inactive). For the same compound, the GI50 [55] was > 100 µM (inactive), the GI50 [56] was > 100 µM (inactive) and the GI50 [57] was > 100 µM (inactive). The GI50 [58] was > 100 µM (inactive).

`COc1ccc(-c2coc3c4c(ccc3c2=O)OCO4)cc1OC` was tested, and the GI50 [1] was > 100 µM (inactive), the GI50 [2] was 14.9 µM (inactive) and the GI50 [3] was 49.2 µM (inactive). The GI50 [4] was 29 µM (inactive), the GI50 [5] was 56.9 µM (inactive) and the GI50 [6] was 44.9 µM (inactive). The GI50 [7] was 27.9 µM (inactive), the GI50 [8] was > 100 µM (inactive) and the GI50 [9] was > 100 µM (inactive). The GI50 [10] was 26.4 µM (inactive), the GI50 [11] was 7.6 µM (inactive) and the GI50 [12] was 63 µM (inactive). The GI50 [13] was > 100 µM (inactive), the GI50 [14] was > 100 µM (inactive) and the GI50 [15] was > 100 µM (inactive). The GI50 [16] was 45.4 µM (inactive), the GI50 [17] was > 100 µM (inactive) and the GI50 [18] was 37.2 µM (inactive). For the same compound, the GI50 [19] was 76.7 µM (inactive), the GI50 [20] was 44.4 µM (inactive) and the GI50 [21] was > 100 µM (inactive). The GI50 [22] was 65.3 µM (inactive), the GI50 [23] was > 100 µM (inactive) and the GI50 [24] was 22.5 µM (inactive). The GI50 [25] was 35.4 µM (inactive), the GI50 [26] was 57.8 µM (inactive) and the GI50 [27] was 91.6 µM (inactive). For the same compound, the GI50 [28] was 35.8 µM (inactive), the GI50 [29] was 55.5 µM (inactive) and the GI50 [31] was > 100 µM (inactive). The GI50 [32] was 5.79 µM (inactive), the GI50 [33] was 8.87 µM (inactive) and the GI50 [34] was 55.6 µM (inactive). The GI50 [35] was 24.4 µM (inactive), the GI50 [36] was > 100 µM (inactive) and the GI50 [37] was 99.8 µM (inactive). For the same compound, the GI50 [38] was 5.87 µM (inactive), the GI50 [39] was 83.6 µM (inactive) and the GI50 [40] was 25 µM (inactive). For the same compound, the GI50 [41] was > 100 µM (inactive), the GI50 [42] was 36.3 µM (inactive) and the GI50 [43] was 14.3 µM (inactive). For the same compound, the GI50 [44] was > 100 µM (inactive), the GI50 [45] was 40.6 µM (inactive) and the GI50 [46] was > 100 µM (inactive). The GI50 [47] was 18 µM, the GI50 [48] was 36.7 µM (inactive) and the GI50 [49] was 38 µM (inactive). For the same compound, the GI50 [50] was 38.5 µM (inactive), the GI50 [51] was > 100 µM (inactive) and the GI50 [52] was > 100 µM (inactive). For the same compound, the GI50 [53] was 91 µM (inactive), the GI50 [54] was 38.2 µM (inactive) and the GI50 [55] was 23.8 µM (inactive). For the same compound, the GI50 [56] was 98.2 µM (inactive), the GI50 [57] was > 100 µM (inactive) and the GI50 [58] was 34 µM (inactive).

For `CC(C)=CC(=O)C[C@H]1C(=O)O[C@@H]2C[C@H]3C(C)=CC(=O)[C@@H](O)[C@]3(C)[C@H]3[C@@]4(O)OC[C@]32[C@@H]1[C@@H](C)[C@H]4O`, the GI50 [1] was < 0.01 µM (active), the GI50 [2] was 0.0213 µM (active) and the GI50 [3] was 0.0278 µM (active). The GI50 [4] was < 0.0127 µM (active), the GI50 [6] was 0.0313 µM (active) and the GI50 [7] was 0.023 µM (active). The GI50 [8] was < 0.0107 µM (active), the GI50 [9] was 0.0196 µM (active) and the GI50 [10] was 0.029 µM (active). The GI50 [11] was < 0.01 µM (active), the GI50 [12] was 0.019 µM (active) and the GI50 [13] was 0.236 µM (active). The GI50 [14] was 0.0159 µM (active), the GI50 [15] was 0.0281 µM (active) and the GI50 [16] was 0.0454 µM (active). For the same compound, the GI50 [17] was 0.125 µM (active), the GI50 [18] was < 0.01 µM (active) and the GI50 [19] was < 0.01 µM (active). For the same compound, the GI50 [20] was < 0.01 µM (active), the GI50 [21] was 0.043 µM (active) and the GI50 [22] was 0.0311 µM (active). The GI50 [23] was 0.0177 µM (active), the GI50 [24] was 0.0364 µM (active) and the GI50 [25] was 0.0266 µM (active). The GI50 [26] was < 0.01 µM (active), the GI50 [27] was 0.0975 µM (active) and the GI50 [28] was 0.631 µM (active). For the same compound, the GI50 [29] was < 0.01 µM (active), the GI50 [30] was < 0.01 µM (active) and the GI50 [31] was < 0.01 µM (active). The GI50 [32] was < 0.0189 µM (active), the GI50 [33] was < 0.01 µM (active) and the GI50 [34] was 0.122 µM (active). The GI50 [35] was 0.187 µM (active), the GI50 [36] was 0.0711 µM (active) and the GI50 [37] was 0.0605 µM (active). The GI50 [38] was 0.0222 µM (active), the GI50 [39] was < 0.0169 µM (active) and the GI50 [40] was < 0.01 µM (active). The GI50 [41] was < 0.01 µM (active), the GI50 [42] was 0.0216 µM (active) and the GI50 [43] was < 0.01 µM (active). The GI50 [44] was 0.0185 µM (active), the GI50 [45] was < 0.01 µM (active) and the GI50 [46] was < 0.0114 µM (active). The GI50 [47] was 0.0382 µM, the GI50 [48] was 0.0227 µM (active) and the GI50 [49] was < 0.01 µM (active). The GI50 [50] was 0.175 µM (active), the GI50 [51] was 0.0313 µM (active) and the GI50 [52] was < 0.0111 µM (active). For the same compound, the GI50 [53] was < 0.01 µM (active), the GI50 [54] was 0.0148 µM (active) and the GI50 [55] was < 0.0146 µM (active). The GI50 [56] was < 0.01 µM (active), the GI50 [57] was < 0.01 µM (active) and the GI50 [58] was 0.0275 µM (active).

— ChEMBL document CHEMBL1201862, “PubChem BioAssay data set” (2004)
